Results: patent US20260243779A1, “METHOD FOR EVALUATING RECEPTOR-TYPE TYROSINE KINASE ACTIVITY” (The University of Osaka, priority 2023, published 2026)

Legend:
EGFR [1] = biological target: T1, EGFR (Homo sapiens, UniProt P00533); assay: EGFR immunostaining, subcellular localization of the EGFR; type: cell-based; details: EGF not necessary
EGFR [2] = biological target: T1, EGFR; assay: Drug evaluation / FDA-approved drug library screening using MSDδt=500 ms ratio before and after EGF addition, CHO cells expressing EGFR-GFP; details: for MSDδt=500 ms ratio compared with the control: compound addition changed MSDδt=500 ms in an EGF-independent manner; for hit in primary screening (MSDδt=500 ms ratio equal to or greater than threshold = control average + 3×standard deviation): FDA-approved drug library (1134 drugs), EGF 60 nM, among the 53 hit compounds
Procedure: Single-molecule imaging was performed in the same way as above, except that the gefitinib-untreated CHO cell was used instead of the gefitinib-treated CHO cell as the control, and then the MSDδt=500 ms ratio was calculated.
Single-molecule imaging was also performed for the control in order to determine the threshold. Single-molecule imaging for the control was performed in the same way as above, except that the candidate compound was not placed in the wells.
Compounds that are within a significance level of 5% and increased in a concentration-dependent manner were selected, from which the compounds that are difficult to be measured due to coloration or cause the cell damage were excluded.

ErbB3 = ErbB3 (Homo sapiens, UniProt P21860); assay: Single-molecule imaging of CHO cell expressing ErbB3-GFP, MSD ratio HRG-treated/untreated; type: cell-based; details: drug 0.1 to 10,000 nM; HRG saturated (>30 nM); concentration-dependent; FIG. 8A
Chain of ErbB3 (P21860 20-1342): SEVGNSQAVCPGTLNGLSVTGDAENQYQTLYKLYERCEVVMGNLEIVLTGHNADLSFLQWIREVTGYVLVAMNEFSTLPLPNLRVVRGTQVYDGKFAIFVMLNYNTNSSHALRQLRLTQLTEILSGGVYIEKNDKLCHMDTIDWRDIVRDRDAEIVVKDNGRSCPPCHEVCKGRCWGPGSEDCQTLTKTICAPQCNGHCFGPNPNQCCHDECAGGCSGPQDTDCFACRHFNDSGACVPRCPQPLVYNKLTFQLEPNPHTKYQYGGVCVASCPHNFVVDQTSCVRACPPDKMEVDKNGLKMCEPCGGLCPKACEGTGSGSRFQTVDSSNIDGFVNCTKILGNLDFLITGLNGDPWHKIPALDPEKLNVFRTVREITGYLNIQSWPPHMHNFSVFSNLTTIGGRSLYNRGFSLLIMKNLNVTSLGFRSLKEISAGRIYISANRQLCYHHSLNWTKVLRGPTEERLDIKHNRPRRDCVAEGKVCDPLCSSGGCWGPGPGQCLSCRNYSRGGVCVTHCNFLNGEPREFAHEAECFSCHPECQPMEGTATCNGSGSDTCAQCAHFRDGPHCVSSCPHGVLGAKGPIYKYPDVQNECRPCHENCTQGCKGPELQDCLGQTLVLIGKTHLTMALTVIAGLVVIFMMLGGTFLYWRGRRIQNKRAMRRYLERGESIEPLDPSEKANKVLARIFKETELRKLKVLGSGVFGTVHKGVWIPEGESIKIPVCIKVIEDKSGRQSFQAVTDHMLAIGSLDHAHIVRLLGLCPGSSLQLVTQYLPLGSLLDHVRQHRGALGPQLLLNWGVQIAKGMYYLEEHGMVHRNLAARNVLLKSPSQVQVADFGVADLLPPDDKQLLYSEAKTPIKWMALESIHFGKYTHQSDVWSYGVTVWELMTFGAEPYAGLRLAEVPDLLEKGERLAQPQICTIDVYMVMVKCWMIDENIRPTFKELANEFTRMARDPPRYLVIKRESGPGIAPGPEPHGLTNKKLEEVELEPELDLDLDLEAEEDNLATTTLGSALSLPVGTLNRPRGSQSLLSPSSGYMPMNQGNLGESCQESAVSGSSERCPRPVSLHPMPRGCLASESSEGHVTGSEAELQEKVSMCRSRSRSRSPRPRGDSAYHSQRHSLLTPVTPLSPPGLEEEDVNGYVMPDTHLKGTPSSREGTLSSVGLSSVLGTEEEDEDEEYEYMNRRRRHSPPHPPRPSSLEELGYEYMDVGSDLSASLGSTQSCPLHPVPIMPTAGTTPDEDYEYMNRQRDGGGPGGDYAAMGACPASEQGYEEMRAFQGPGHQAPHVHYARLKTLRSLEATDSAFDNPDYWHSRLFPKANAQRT
Procedure: FIGS. 8A and 8B show the relationship between the drug (Sapitinib or Afaitinib) concentration and the receptor diffusion dynamics (MSDδt=500 ms ratio) when the HRG concentration is saturated (>30 nM); here, FIG. 8A is the result for Sapitinib and FIG. 8B is the result for Afaitinib. […] Therefore, it was confirmed that the effect of the phosphorylation inhibitor can be estimated from the change in the molecular dynamics by measuring the diffusion dynamics and calculating the ratio of the MSD values, even for the RTK receptor other than the EGFR.

T1 sequence (P00533 25-1210): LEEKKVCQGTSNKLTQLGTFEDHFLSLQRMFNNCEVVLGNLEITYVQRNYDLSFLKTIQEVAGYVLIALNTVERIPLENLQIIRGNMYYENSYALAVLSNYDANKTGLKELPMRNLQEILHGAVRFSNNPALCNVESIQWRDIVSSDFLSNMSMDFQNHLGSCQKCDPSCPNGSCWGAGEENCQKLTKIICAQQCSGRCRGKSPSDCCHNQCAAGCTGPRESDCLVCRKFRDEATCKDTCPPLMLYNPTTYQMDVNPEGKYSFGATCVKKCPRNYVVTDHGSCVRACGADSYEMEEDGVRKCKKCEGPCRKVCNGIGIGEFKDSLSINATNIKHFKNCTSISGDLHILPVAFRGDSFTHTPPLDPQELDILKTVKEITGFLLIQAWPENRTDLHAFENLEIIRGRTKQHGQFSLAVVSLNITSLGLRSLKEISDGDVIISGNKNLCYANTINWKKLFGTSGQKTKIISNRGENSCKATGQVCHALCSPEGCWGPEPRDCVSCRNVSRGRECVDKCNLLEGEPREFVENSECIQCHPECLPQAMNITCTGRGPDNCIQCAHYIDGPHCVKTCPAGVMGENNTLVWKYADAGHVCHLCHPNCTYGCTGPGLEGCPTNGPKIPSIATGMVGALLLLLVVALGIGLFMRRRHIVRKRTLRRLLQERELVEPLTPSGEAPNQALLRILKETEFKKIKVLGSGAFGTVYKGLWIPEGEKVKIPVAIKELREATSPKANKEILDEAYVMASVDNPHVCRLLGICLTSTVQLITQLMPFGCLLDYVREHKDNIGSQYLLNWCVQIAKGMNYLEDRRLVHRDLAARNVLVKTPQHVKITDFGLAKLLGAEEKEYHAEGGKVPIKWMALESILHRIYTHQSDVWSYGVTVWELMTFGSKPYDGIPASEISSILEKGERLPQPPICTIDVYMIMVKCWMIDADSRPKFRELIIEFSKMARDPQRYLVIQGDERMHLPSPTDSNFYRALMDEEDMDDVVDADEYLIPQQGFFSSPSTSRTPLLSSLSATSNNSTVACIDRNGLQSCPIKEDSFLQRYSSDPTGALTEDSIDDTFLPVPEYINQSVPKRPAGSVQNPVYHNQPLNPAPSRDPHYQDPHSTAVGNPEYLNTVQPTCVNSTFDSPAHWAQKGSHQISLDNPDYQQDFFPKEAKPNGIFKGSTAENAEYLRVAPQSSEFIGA

Row | SMILES | effect on the subcellular localization of the EGFR (EGFR [1]) | MSDδt=500 ms ratio compared with the control (EGFR [2]) | hit in primary screening (MSDδt=500 ms ratio equal to or greater than threshold = control average + 3×standard deviation) (EGFR [2]) | effect on reduction of receptor mobility (MSDδt=500 ms ratio) by HRG, ErbB3 (ErbB3)
1 | Oc1c(Br)cc(Br)c2cccnc12 [Broxyquinoline] | EGFR was incorporated into the cell | significantly different from the control | – | –
2 | COc1cccc2c1C(=O)c1c(O)c3c(c(O)c1C2=O)C[C@@](O)(C(C)=O)C[C@@H]3O[C@H]1C[C@H](N)[C@H](O)[C@H](C)O1 [Daunorubicin] | – | – | included | –
3 | O=C(OCC(O)CO)c1ccccc1Nc1ccnc2cc(Cl)ccc12 (stereo not drawn) [Glafenine] | EGFR was incorporated into the cell | significantly different from the control | – | –
4 | Cc1cn(-c2cc(NC(=O)c3ccc(C)c(Nc4nccc(-c5cccnc5)n4)c3)cc(C(F)(F)F)c2)cn1 [Nilotinib] | EGFR was incorporated into the cell | significantly different from the control | – | –
5 | C#Cc1cccc(Nc2ncnc3cc(OCCOC)c(OCCO)cc23)c1 [OSI-420] | – | – | included | –
6 | CNC(=O)CN1CCC(Oc2cc3c(Nc4cccc(Cl)c4F)ncnc3cc2OC)CC1 [Sapitinib] | – | – | – | inhibited the reduction of the receptor mobility
